Experimental data taken from patent publication US11738082B2, “High concentration protein formulations with reduced viscosity” (Bhami's Research Laboratory, Pvt. Ltd., priority 2017, dated 2023).
Counter-ions that a name gives are not always drawn.

System: Human Gamma Globulin (HGG), GLOBUCEL®
Test: Viscosity of aqueous solutions of Human Gamma Globulin (Cambridge VISCOlab5000 or DV2T cone and plate viscometer)
[1] = HGG 220 mg/mL, excipient 10 mg/mL, histidine buffer pH 6.0, 25° C.
[2] = HGG 220 mg/mL, excipient 10 mg/mL, phosphate buffer pH 6.0, 25° C.
[3] = HGG […], excipient 5%, 25 mM citrate buffer pH 6.0

Procedure: Commercially obtained human gamma globulin (HGG), GLOBUCEL® (50 mg/mL) containing pharmaceutical excipients (Maltose) was dialyzed against water for 24 hr at 4° C. with three changes. To the aqueous solution of HGG, either histidine or phosphate or citrate buffer was added from the stock concentration of 1000 mM for histidine buffer or 1000 mM for citrate buffer or 1000 mM for phosphate buffer, pH 6.0 to get a final concentration of 25 mM each. The HGG solutions in various buffers were concentrated to a final volume of less than 150 μL using Vivaspin centrifugal concentrators (Sartorius). The collected protein sample was stored at 4° C. […] The protein concentrations were experimentally determined using the extinction coefficient of 1.4
[formula] at 280 nm. The viscosities of the solution were measured either using a Cambridge Viscometer, VISCOlab5000 using 70 μL of sample at 25° C. or using a DV2T cone and plate viscometer using 1.5 mL of sample at 25° C. at extrapolated zero shear rate.
Commercially obtained human gamma globulin (HGG), GLOBUCEL® (50 mg/mL) containing pharmaceutical excipients (Maltose) was dialyzed against water for 24 hr at 4° C. with three changes. To the aqueous solution of HGG, either citrate-phosphate buffer pH 5.0 or citrate-phosphate buffer pH 6.0 or citrate-phosphate buffer pH 7.0 was added from the stock concentration of 1000 mM for citrate buffer at pH 5.0 or pH 6.0 or pH 7.0 to get a final concentration of 25 mM each. The HGG solutions in various pH buffers were concentrated to a final volume of less than 150 μL using Vivaspin centrifugal concentrators (Sartorius). The collected protein sample was stored at 4° C. […] The protein concentrations were experimentally determined using the extinction coefficient of 1.4
Commercially obtained human gamma globulin (HGG), GLOBUCEL® (50 mg/mL) containing pharmaceutical excipients (Maltose) was dialyzed against water for 24 hr at 4° C. with three changes. To the aqueous solution of HGG, phosphate/citrate/histidine Buffer was added from the stock concentration of 1000 mM phosphate/citrate/histidine buffer, pH 6.0 to get a final concentration of 25 mM. To the buffered HGG different amino acid or its derivative was added individually and mixed until complete dissolution. The excipient containing HGG was concentrated to a final volume of less than 150 μL using Vivaspin centrifugal concentrators (Sartorius). The collected protein sample was stored at 4° C. […] The protein concentrations were experimentally determined using the extinction coefficient of 1.4
Commercially obtained human gamma globulin (HGG), GLOBUCEL® (50 mg/mL) containing pharmaceutical excipients (Maltose) was dialyzed against water for 24 hr at 4° C. with three changes. To the aqueous solution of HGG, phosphate/citrate/histidine Buffer was added from the stock concentration of 1000 mM phosphate/citrate/histidine buffer, pH 6.0 to get a final concentration of 25 mM. To the buffered HGG, different nucleosides or nucleotides or its derivative was added individually and mixed until complete dissolution. The excipient containing HGG was concentrated to a final volume of less than 150 μL using Vivaspin centrifugal concentrators (Sartorius). The collected protein sample was stored at 4° C.

Cc1ncc(C[n+]2csc(CCO)c2C)c(N)n1 [Thiamine-HCl]
Viscosity (cP) @ 25° C. (HGG 179 mg/mL, excipient 10 mg/mL (30 mM), 25 mM phosphate buffer pH 6.0): 24 cP
Viscosity (cP) @ 25° C. (HGG 200 mg/mL, excipient 10 mg/mL (30 mM), 25 mM histidine buffer pH 6.0): 29 cP
Viscosity (cP) @ 25° C. (HGG 200 mg/mL, excipient 27.3 mg/mL (81 mM), 25 mM phosphate buffer pH 6.0): 34 cP
Viscosity, cP [1]: 95 cP
Viscosity, cP [2]: 65 cP
Viscosity (cP) @ 25° C. (HGG 246 mg/mL, excipient 27.3 mg/mL (81 mM), 25 mM phosphate buffer pH 6.0): 91 cP
Viscosity (cP) @ 25° C. (HGG 248 mg/mL, excipient 10 mg/mL (30 mM), 25 mM phosphate buffer pH 6.0): 92 cP
Viscosity (cP) @ 25° C. (HGG 294 mg/mL, excipient 10 mg/mL (30 mM), 25 mM citrate buffer pH 6.0): 185 cP

O=C1O[C@H]([C@@H](O)CO)C(O)=C1O [L-Ascorbic acid]
Viscosity (cP) @ 25° C. (HGG 214 mg/mL, excipient 10 mg/mL (57 mM), 25 mM phosphate buffer pH 6.0): 59 cP

O=c1ccn([C@@H]2O[C@H](CO)[C@@H](O)[C@H]2O)c(=O)[nH]1 [Uridine]
Viscosity (cP) @ 25° C. (HGG 203 mg/mL, excipient 10 mg/mL (41 mM), 25 mM phosphate buffer pH 6.0): 28 cP

OC[C@@H](O)[C@@H](O)[C@H](O)[C@@H](O)CO [D-sorbitol]
Viscosity (cP) @ 25° C. (HGG 182 mg/mL, excipient 10 mg/mL (56 mM), 25 mM citrate buffer pH 6.0): 45 cP
Viscosity (cP) @ 25° C. (HGG 240 mg/mL, excipient 10 mg/mL (56 mM), 25 mM phosphate buffer pH 6.0): 176 cP

C[C@H](N)C(=O)O [Alanine]
Viscosity (cP) @ 25° C. (HGG 222 mg/mL, excipient 10 mg/mL (112 mM), 25 mM phosphate buffer pH 6.0): 112 cP

Cl.N [Ammonium chloride]
Viscosity (cP) @ 25° C. (HGG 182 mg/mL, excipient 5.35 mg/mL (100 mM), 25 mM phosphate buffer pH 6.0): 53 cP
Viscosity (cP) @ 25° C. (HGG 205 mg/mL, excipient 40 mg/mL (747 mM), 25 mM phosphate buffer pH 6.0): 21 cP

O=C([O-])c1cccnc1.[Na+] [Nicotinic acid Sodium Salt]
Viscosity (cP) @ 25° C. (HGG 202 mg/mL, excipient 10 mg/mL (69 mM), 25 mM phosphate buffer pH 6.0): 29 cP
Viscosity (cP) @ 25° C. (HGG 203 mg/mL, excipient 10 mg/mL (69 mM), 25 mM histidine buffer pH 6.0): 21 cP
Viscosity, cP [1]: 81 cP
Viscosity, cP [2]: 95 cP
Viscosity, cP (HGG 225 mg/mL (footnote), excipient 10 mg/mL, citrate buffer pH 6.0, 25° C.): 71^$ cP
Viscosity (cP) @ 25° C. (HGG 225 mg/mL, excipient 10 mg/mL (69 mM), 25 mM phosphate buffer pH 6.0): 95 cP
Viscosity (cP) @ 25° C. (HGG 235 mg/mL, excipient 10 mg/mL (69 mM), 25 mM histidine buffer pH 6.0): 140 cP
Viscosity (cP) @ 25° C. (HGG 236 mg/mL, excipient […] (81 mM), 25 mM histidine buffer pH 6.0): 83 cP
Viscosity (cP) @ 25° C. (HGG […], excipient 10 mg/mL (69 mM), 25 mM citrate buffer pH 6.0): 71 cP

CC(=O)Oc1ccccc1C(=O)O [Acetyl salicylic acid, reference compound]
Viscosity (cP) @ 25° C. (HGG 283 mg/mL, excipient 2.5 mg/mL (14 mM), 25 mM histidine buffer pH 6.0): 43 cP

COC(=O)c1cccnc1 [Methylnicotinate]
Viscosity (cP) @ 25° C. (HGG 216 mg/mL, excipient 10 mg/mL (73 mM), 25 mM phosphate buffer pH 6.0): 84 cP

O=C[C@@H](O)[C@H](O)[C@H](O)CO [Arabinose]
Viscosity (cP) @ 25° C. (HGG 186 mg/mL, excipient 10 mg/mL (67 mM), 25 mM citrate buffer pH 6.0): 65 cP

CCO [Ethanol]
Viscosity (cP) @ 25° C. (HGG 182 mg/mL, excipient 5%, 25 mM phosphate buffer pH 6.0): 53 cP
Viscosity (cP) @ 25° C. [3]: 5 cP

NCC(=O)O [Glycine]
Viscosity (cP) @ 25° C. (HGG 206 mg/mL, excipient 10 mg/mL ([…]), 25 mM phosphate buffer pH 6.0): 63 cP
Viscosity (cP) @ 25° C. (HGG 208 mg/mL, excipient 10 mg/mL ([…]), 25 mM citrate buffer pH 6.0): 73 cP
Viscosity (cP) @ 25° C. (HGG 228 mg/mL, excipient 10 mg/mL ([…]), 25 mM phosphate buffer pH 6.0): 186 cP

CC(=O)[O-].[Na+] [Sodium Acetate]
Viscosity (cP) @ 25° C. (HGG 174 mg/mL, excipient […] (100 mM), 25 mM phosphate buffer pH 6.0): 19 cP

OC[C@@H](O)[C@@H](O)[C@H](O)[C@H](O)CO [Mannitol]
Viscosity (cP) @ 25° C. (HGG […], excipient 10 mg/mL (55 mM), 25 mM citrate buffer pH 6.0): 65 cP

Polysorbate 80
Viscosity (cP) @ 25° C. (HGG 228 mg/mL, excipient 0.07%, 25 mM citrate buffer pH 6.0): 78 cP
Viscosity (cP) @ 25° C. (HGG 241 mg/mL, excipient 0.07%, 25 mM phosphate buffer pH 6.0): 84 cP

O=C(CO)[C@@H](O)[C@H](O)[C@H](O)CO [Fructose]
Viscosity (cP) @ 25° C. (HGG […], excipient 10 mg/mL (56 mM), 25 mM citrate buffer pH 6.0): 69 cP

N[C@@H](Cc1c[nH]c2ccccc12)C(=O)O [Tryptophan]
Viscosity (cP) @ 25° C. (HGG 200 mg/mL, excipient 6 mg/mL (29 mM), 25 mM phosphate buffer pH 6.0): 14 cP
Viscosity (cP) @ 25° C. (HGG 231 mg/mL, excipient 6 mg/mL (29 mM), 25 mM citrate buffer pH 6.0): 60 cP
Viscosity (cP) @ 25° C. (HGG 243 mg/mL, excipient 6 mg/mL (29 mM), 25 mM phosphate buffer pH 6.0): 35 cP
Viscosity (cP) @ 25° C. (HGG 256 mg/mL, excipient 6 mg/mL (29 mM), 25 mM histidine buffer pH 6.0): 18 cP

L-Pantothenic Acid hemicalcium salt
Viscosity (cP) @ 25° C. (HGG 182 mg/mL, excipient 10 mg/mL (42 mM), 25 mM phosphate buffer pH 6.0): 14 cP

CC(=O)C(=O)[O-].[Na+] [Pyruvate sodium salt]
Viscosity (cP) @ 25° C. (HGG 213 mg/mL, excipient 10 mg/mL (91 mM), 25 mM phosphate buffer pH 6.0): 171 cP

O=c1cc[nH]c(=O)[nH]1 [Uracil]
Viscosity (cP) @ 25° C. (HGG 235 mg/mL, excipient 1 mg/mL (9 mM), 25 mM phosphate buffer pH 6.0): 140 cP

C[S+](C)[O-] [DMSO]
Viscosity (cP) @ 25° C. (HGG 204 mg/mL, excipient 5%, 25 mM phosphate buffer pH 6.0): 121 cP
Viscosity (cP) @ 25° C. [3]: 28 cP

OC[C@H]1O[C@@](CO)(O[C@H]2O[C@H](CO)[C@@H](O)[C@H](O)[C@H]2O)[C@@H](O)[C@@H]1O [Sucrose]
Viscosity (cP) @ 25° C. (HGG 192 mg/mL, excipient 20 mg/mL (58 mM), 25 mM citrate buffer pH 6.0): 76 cP
Viscosity (cP) @ 25° C. (HGG 204 mg/mL, excipient 20 mg/mL (58 mM), 25 mM phosphate buffer pH 6.0): 190 cP

Cc1cn([C@H]2C[C@H](O)[C@@H](CO)O2)c(=O)[nH]c1=O [Thymidine]
Viscosity (cP) @ 25° C. (HGG 161 mg/mL, excipient 10 mg/mL (41 mM), 25 mM phosphate buffer pH 6.0): 60 cP

N[C@@H](CO)C(=O)O [Serine]
Viscosity (cP) @ 25° C. (HGG 238 mg/mL, excipient 10 mg/mL (95 mM), 25 mM phosphate buffer pH 6.0): 135 cP

Cl.NCCc1ccc(O)cc1 [Tyramine-HCl]
Viscosity (cP) @ 25° C. (HGG 215 mg/mL, excipient 10 mg/mL (58 mM), 25 mM phosphate buffer pH 6.0): 145 cP

O=C(O)c1cccnc1 [Nicotinic acid (acid form)]
Viscosity, cP (HGG 220 mg/mL, excipient 10 mg/mL, citrate buffer pH 6.0, 25° C.): 20 cP
Viscosity, cP [1]: 18 cP
Viscosity, cP [2]: 20 cP
Viscosity (cP) @ 25° C. (HGG 231 mg/mL, excipient 10 mg/mL (81 mM), 25 mM histidine buffer pH 6.0): 23 cP
Viscosity (cP) @ 25° C. (HGG 246 mg/mL, excipient 10 mg/mL (81 mM), 25 mM citrate buffer pH 6.0): 48 cP
Viscosity (cP) @ 25° C. (HGG 250 mg/mL, excipient 10 mg/mL (81 mM), 25 mM phosphate buffer pH 6.0): 30 cP
Viscosity, cP (HGG 260 mg/mL, nicotinic acid (acid form) 1 mg/mL, 25 mM histidine buffer pH 6.0, 25° C.): 85 cP
Viscosity, cP (HGG 260 mg/mL, nicotinic acid (acid form) 5 mg/mL, 25 mM histidine buffer pH 6.0, 25° C.): 68 cP
Viscosity, cP (HGG 260 mg/mL, nicotinic acid (acid form) 10 mg/mL, 25 mM histidine buffer pH 6.0, 25° C.): 52 cP
Viscosity, cP (HGG 260 mg/mL, nicotinic acid (acid form) 15 mg/mL, 25 mM histidine buffer pH 6.0, 25° C.): 41 cP
Viscosity, cP (HGG 274 mg/mL, in the presence of nicotinic acid (acid form), 25 mM histidine buffer pH 6.0, 20° C.): 63 cP
Viscosity, cP (HGG 274 mg/mL, in the presence of nicotinic acid (acid form), 25 mM histidine buffer pH 6.0, 25° C.): 41 cP
Viscosity, cP (HGG 274 mg/mL, in the presence of nicotinic acid (acid form), 25 mM histidine buffer pH 6.0, 30° C.): 35 cP
Viscosity (cP) @ 25° C. (HGG 277 mg/mL, excipient 10 mg/mL (81 mM), 25 mM citrate buffer pH 6.0): 123 cP
Viscosity (cP) @ 25° C. (HGG 342 mg/mL, excipient 10 mg/mL (81 mM), 25 mM histidine buffer pH 6.0): 178 cP

OC[C@H]1O[C@H](O[C@H]2O[C@H](CO)[C@@H](O)[C@H](O)[C@H]2O)[C@H](O)[C@@H](O)[C@@H]1O [Trehalose dihydrate]
Viscosity (cP) @ 25° C. (HGG 217 mg/mL, excipient 20 mg/mL (53 mM), 25 mM citrate buffer pH 6.0): 87 cP
Viscosity (cP) @ 25° C. (HGG 246 mg/mL, excipient 20 mg/mL (53 mM), 25 mM phosphate buffer pH 6.0): 54 cP

Nc1ncccn1 [2-Aminopyrimidine]
Viscosity (cP) @ 25° C. (HGG 120 mg/mL, excipient 10 mg/mL (105 mM), 25 mM phosphate buffer pH 6.0): 87 cP

CC(=O)[O-].[K+] [Potassium acetate]
Viscosity (cP) @ 25° C. (HGG 228 mg/mL, excipient 40 mg/mL (408 mM), 25 mM phosphate buffer pH 6.0): 172 cP

N[C@@H](Cc1c[nH]cn1)C(=O)O [Histidine]
Viscosity (cP) @ 25° C. (HGG 180 mg/mL, excipient 10 mg/mL (65 mM), 25 mM phosphate buffer pH 6.0): 31 cP

NCCCC[C@H](N)C(=O)O [Lysine]
Viscosity (cP) @ 25° C. (HGG 267 mg/mL, excipient 10 mg/mL (55 mM), 25 mM phosphate buffer pH 6.0): 199 cP
